Measurements: PubChem BioAssay AID248 (DTP/NCI, 2004)
Several values for one entry are separate records, joined by “and”; a condition that tells them apart may be missing. Identical values can stand only once. Inconclusive results and toxic doses are left out. Rule as the data show it: active = T/C of 150% or more; inactive = T/C below 125%.

Tested on: L1210 leukemia ip in BDF1 mice, survival T/C
Assay: NCI In Vivo Anticancer Drug Screen. Data for tumor model L1210 Leukemia (intraperitoneal) in B6D2F1 (BDF1) mice
Conditions: endpoint: mean survival time, higher = longer survival
Procedure, shortened: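 Read-out is survival time, reported as the treated-group measurement over the vehicle-control measurement.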

[1] = dose: 12.5 mg/kg/injection, schedule: Q01DX009 (ip), vehicle: Klucel (hydroxypropylcellulose) (HPC)
[2] = dose: 25.0 mg/kg/injection, schedule: Q01DX009 (ip), vehicle: Klucel (hydroxypropylcellulose) (HPC)
[3] = dose: 50.0 mg/kg/injection, schedule: Q01DX009 (ip), vehicle: Klucel (hydroxypropylcellulose) (HPC)
[4] = dose: 100.0 mg/kg/injection, schedule: Q04DX003 (ip), vehicle: saline
[5] = dose: 200.0 mg/kg/injection, schedule: Q04DX003 (ip), vehicle: saline
[6] = dose: 400.0 mg/kg/injection, schedule: Q04DX003 (ip), vehicle: saline
[7] = dose: 100.0 mg/kg/injection, schedule: Q04DX002 (ip), vehicle: saline with Tween-80
[8] = dose: 200.0 mg/kg/injection, schedule: Q04DX002 (ip), vehicle: saline with Tween-80
[9] = dose: 400.0 mg/kg/injection, schedule: Q04DX002 (ip), vehicle: saline with Tween-80
[10] = dose: 50.0 mg/kg/injection, schedule: Q01DX009 (ip), vehicle: saline with Tween-80
[11] = dose: 100.0 mg/kg/injection, schedule: Q01DX009 (ip), vehicle: saline with Tween-80
[12] = dose: 100.0 mg/kg/injection, schedule: Q04DX003 (ip), vehicle: saline with Tween-80
[13] = dose: 200.0 mg/kg/injection, schedule: Q01DX009 (ip), vehicle: saline with Tween-80
[14] = dose: 200.0 mg/kg/injection, schedule: Q04DX003 (ip), vehicle: saline with Tween-80
[15] = dose: 400.0 mg/kg/injection, schedule: Q04DX003 (ip), vehicle: saline with Tween-80
[16] = dose: 100.0 mg/kg/injection, schedule: Q01DX009 (ip), vehicle: Klucel (hydroxypropylcellulose) (HPC)
[17] = dose: 200.0 mg/kg/injection, schedule: Q01DX009 (ip), vehicle: Klucel (hydroxypropylcellulose) (HPC)
[18] = dose: 400.0 mg/kg/injection, schedule: Q01DX009 (ip), vehicle: Klucel (hydroxypropylcellulose) (HPC)
[19] = dose: 30.0 mg/kg/injection, schedule: Q01DX Z (ip), vehicle: saline
[20] = dose: 100.0 mg/kg/injection, schedule: Q01DX001 (ip), vehicle: acetone
[21] = dose: 200.0 mg/kg/injection, schedule: Q01DX001 (ip), vehicle: acetone
[22] = dose: 100.0 mg/kg/injection, schedule: Q04DX002 (ip), vehicle: Klucel (hydroxypropylcellulose) (HPC)

Measured: T/C

CCCc1c2cc(OC)c(OC)cc2cc2c3cc(OC)c(OC)cc3cc[n+]12 (tested in a mixture with another compound)
inactive: [1] 109 % of control | [2] 107 % of control | [3] 106 % of control and 123 % of control | dose: 100.0 mg/kg/injection, schedule: Q04DX003 (ip), vehicle: Klucel (hydroxypropylcellulose) (HPC) 100 % of control | dose: 200.0 mg/kg/injection, schedule: Q04DX003 (ip), vehicle: Klucel (hydroxypropylcellulose) (HPC) 110 % of control

OCC(O)COc1ccc(OCc2ccccc2)cc1 (centres undefined)
inactive: [1] 94 % of control | [2] 102 % of control | [3] 93 % of control and 87 % of control

C=C(C)C(C(=O)OC)n1scc(NCc2ccccc2)c1=O (centres undefined)
inactive: [4] 91 % of control | [5] 91 % of control | [6] 89 % of control

CCOc1ccccc1NC(=O)Oc1ccc(SC)c(C)c1
inactive: [7] 113 % of control | [8] 110 % of control | [9] 103 % of control

CC(C)=NOC(CC(=O)O)C(=O)O (centres undefined)
inactive: dose: 100.0 mg/kg/injection, schedule: Q04DX002 (ip), vehicle: saline 96 % of control | dose: 200.0 mg/kg/injection, schedule: Q04DX002 (ip), vehicle: saline 96 % of control | dose: 400.0 mg/kg/injection, schedule: Q04DX002 (ip), vehicle: saline 96 % of control

O=S1(=O)N=C(c2ccccc2)CC(c2ccccc2)N1 (centres undefined)
inactive: dose: 25.0 mg/kg/injection, schedule: Q01DX009 (ip), vehicle: saline with Tween-80 87 % of control | [10] 96 % of control | dose: 50.0 mg/kg/injection, schedule: Q04DX003 (ip), vehicle: saline with Tween-80 98 % of control | [11] 94 % of control | [12] 93 % of control | [13] 93 % of control | [14] 86 % of control

c1ccc2c[n+](C[n+]3ccc4ccccc4c3)ccc2c1
inactive: [4] 103 % of control | [5] 105 % of control

O=C(Cc1ccccc1)C(c1ccccc1)C(c1ccccc1)c1ccccc1 (centres undefined)
inactive: [7] 96 % of control | [8] 111 % of control | [9] 107 % of control

CCOP(=S)(OCC)SC(C)c1ccccc1 (centres undefined)
inactive: [10] 95 % of control | [11] 91 % of control | [13] 100 % of control

CC1(C)OC(CCl)C2OC(C)(C)OC(CCl)C2O1 (centres undefined)
inactive: dose: 100.0 mg/kg/injection, schedule: Q01DX001 (ip), vehicle: saline 93 % of control | dose: 200.0 mg/kg/injection, schedule: Q01DX001 (ip), vehicle: saline 88 % of control | dose: 400.0 mg/kg/injection, schedule: Q01DX001 (ip), vehicle: saline 104 % of control

CCC(C)OC(=O)Nc1cccc(OC(=O)NC(C)C)c1 (centres undefined)
inactive: [12] 96 % of control | [14] 102 % of control | [15] 93 % of control

COC(=O)c1ccc(OC(=O)Nc2cccc(C(C)=O)c2)cc1
inactive: [16] 96 % of control | [17] 101 % of control | [18] 104 % of control

O=C(c1ccccc1)C1CCC(C(=O)c2ccccc2)C1=O (centres undefined)
inactive: dose: 100.0 mg/kg/injection, schedule: Q01DX001 (ip), vehicle: carboxymethylcellulose (CMC) 98 % of control | dose: 200.0 mg/kg/injection, schedule: Q01DX001 (ip), vehicle: carboxymethylcellulose (CMC) 98 % of control | dose: 400.0 mg/kg/injection, schedule: Q01DX001 (ip), vehicle: carboxymethylcellulose (CMC) 98 % of control

N=C(N)c1cccc(NC(=O)c2ccc(C(=O)Nc3cccc(C(=N)N)c3)cc2)c1
inactive: dose: 8.0 mg/kg/injection, schedule: Q01DX Z (ip), vehicle: carboxymethylcellulose (CMC) 95 % of control | dose: 15.0 mg/kg/injection, schedule: Q01DX Z (ip), vehicle: saline 95 % of control | dose: 16.0 mg/kg/injection, schedule: Q01DX Z (ip), vehicle: carboxymethylcellulose (CMC) 96 % of control | [19] 120 % of control | dose: 31.0 mg/kg/injection, schedule: Q01DX Z (ip), vehicle: carboxymethylcellulose (CMC) 106 % of control | dose: 60.0 mg/kg/injection, schedule: Q01DX Z (ip), vehicle: saline 104 % of control | dose: 62.0 mg/kg/injection, schedule: Q01DX Z (ip), vehicle: carboxymethylcellulose (CMC) 113 % of control

CCOC(=O)c1ccc(NC(=O)Nc2cccc(C(F)(F)F)c2)cc1
inactive: [16] 92 % of control | [17] 90 % of control

c1ccc(COc2ccc(Cc3nccc4ccccc34)cc2OCc2ccccc2)cc1
inactive: [12] 88 % of control | [15] 88 % of control

CC(C)C(C=NCC(CCN(C)C)(c1ccc2ccccc2c1)C(C)C)(CCN(C)C)c1ccc2ccccc2c1 (centres undefined)
inactive: dose: 6.25 mg/kg/injection, schedule: Q04DX002 (ip), vehicle: saline + alcohol 87 % of control | dose: 12.5 mg/kg/injection, schedule: Q04DX002 (ip), vehicle: saline + alcohol 93 % of control | dose: 25.0 mg/kg/injection, schedule: Q04DX002 (ip), vehicle: saline + alcohol 93 % of control

C[n+]1cn(CCCl)c2ccccc21
inactive: dose: 10.0 mg/kg/injection, schedule: Q01DX Z (ip), vehicle: saline 93 % of control | [19] 95 % of control

c1ccc(P(=NC2CCCCCC2)(c2ccccc2)c2ccccc2)cc1
inactive: [20] 95 % of control | [21] 94 % of control

Cc1cc(NC(=O)Nc2cccc3ccccc23)no1
inactive: [16] 104 % of control | [22] 89 % of control | [17] 98 % of control | dose: 200.0 mg/kg/injection, schedule: Q04DX002 (ip), vehicle: Klucel (hydroxypropylcellulose) (HPC) 102 % of control | [18] 98 % of control | dose: 400.0 mg/kg/injection, schedule: Q04DX002 (ip), vehicle: Klucel (hydroxypropylcellulose) (HPC) 89 % of control

CCCCCCCCCCCCCCCCCC(=O)OCCOC(=O)CCCCCCCCCCCCCCCCC
inactive: dose: 75.0 mg/kg/injection, schedule: Q01DX009 (ip), vehicle: other 103 % of control | dose: 100.0 mg/kg/injection, schedule: Q04DX002 (ip), vehicle: other 88 % of control | dose: 150.0 mg/kg/injection, schedule: Q01DX009 (ip), vehicle: other 96 % of control | dose: 200.0 mg/kg/injection, schedule: Q04DX002 (ip), vehicle: other 98 % of control | dose: 300.0 mg/kg/injection, schedule: Q01DX009 (ip), vehicle: other 111 % of control

CC(C(=O)O)N(C)C(=O)OCc1ccccc1 (centres undefined)
inactive: [20] 103 % of control | [4] 105 % of control | [21] 101 % of control | [5] 90 % of control | dose: 400.0 mg/kg/injection, schedule: Q01DX001 (ip), vehicle: acetone 96 % of control | [6] 92 % of control

CN(C)CCC(c1ccccc1)c1nc(N)nc(C(CCN(C)C)c2ccccc2)n1 (centres undefined)
inactive: dose: 50.0 mg/kg/injection, schedule: Q04DX002 (ip), vehicle: Klucel (hydroxypropylcellulose) (HPC) 102 % of control | [16] 115 % of control | [22] 105 % of control

O=C1O/C(=C/c2ccccc2)C2CCCCC12 (centres undefined)
inactive: dose: 100.0 mg/kg/injection, schedule: Q01DX009 (ip), vehicle: saline 90 % of control | [4] 105 % of control | dose: 200.0 mg/kg/injection, schedule: Q01DX009 (ip), vehicle: saline 93 % of control | [5] 93 % of control | dose: 400.0 mg/kg/injection, schedule: Q01DX009 (ip), vehicle: saline 95 % of control | [6] 95 % of control

CCC(CN)(c1cccs1)c1cccs1
inactive: dose: 100.0 mg/kg/injection, schedule: Q01DX001 (ip), vehicle: Klucel (hydroxypropylcellulose) (HPC) 87 % of control | dose: 200.0 mg/kg/injection, schedule: Q01DX001 (ip), vehicle: Klucel (hydroxypropylcellulose) (HPC) 97 % of control | dose: 400.0 mg/kg/injection, schedule: Q01DX001 (ip), vehicle: Klucel (hydroxypropylcellulose) (HPC) 103 % of control

Cc1cc([N+](=O)[O-])ccc1NC(=O)c1ccccc1
inactive: dose: 100.0 mg/kg/injection, schedule: Q04DX003 (ip), vehicle: acetone 94 % of control | dose: 200.0 mg/kg/injection, schedule: Q04DX003 (ip), vehicle: acetone 100 % of control | dose: 400.0 mg/kg/injection, schedule: Q04DX003 (ip), vehicle: acetone 93 % of control
